According to patent US20070254843A1, “Methods for treating bone associated diseases by the use of methionine aminopeptidase-2 inhibitors” (Praecis Pharmaceuticals Incorporated, priority 2006, published 2007):

Legend:
[1] = biological target: T1, MetAP-2 (Rattus norvegicus, UniProt P38062); assay: MetAP-2 pharmacodynamic assay in wbc lysates; type: in vivo; conditions: po, PG-PS arthritis rats, 1 mg/kg p.o. qod, read-out: MetAP-2 in wbc inhibited relative to vehicle-treated group
T1 construct: wbc from animals of each study group were pooled and cell lysates were prepared as previously described; from tissue; host or cells: white blood cells (wbc) of female Lewis rats, pooled per study group and lysed
Procedure: MetAP-2 pharmacodynamic assay. The MetAP-2 assay measures the amount of uninhibited MetAP-2 in cells or tissues which has not been derivitized by prior treatment with the MetAP-2 inhibitor (Bernier (2004) Proc. Natl. Acad. Sci. USA 101: 10768-10773 and Bernier (2005) J. Cell. Biochem. 95: 1191-1203). Briefly, wbc from animals of each study group were pooled and cell lysates were prepared as previously described (Bernier (2004) Proc. Natl. Acad. Sci. USA 101: 10768-10773 and Bernier (2005) J. Cell. Biochem. 95: 1191-1203). 10 μg to 20 μg of wbc protein was incubated with a biotinylated analog of the MetAP-2 inhibitor which covalently binds to the catalytic site of MetAP-2. The biotinylated MetAP-2-inhibitor complex was captured on a plate with immobilized streptavidin (Pierce), and detected with the MetAP-2 antibody CM33 (0.5 μg/ml), followed by horseradish peroxidase-conjugated goat anti-rabbit IgG secondary antibody. The amount of uninhibited MetAP-2 was determined by measuring the absorption at 450 nm using a Labsystems Multiskan plate spectrophotometer. Human recombinant MetAP-2 (Mediomics), pre-bound to the biotinylated MetAP-2 inhibitor, was used to generate the standard curve. The detection limit of this assay was 0.47 ng MetAP-2 protein/mg wbc protein.
Since the MetAP-2 inhibitor had the ability to inhibit multiple cell types critical for pathogenesis of the bone associated disease, RA, in vitro, it was hypothesized that the observations from the in vitro studies (Example 1) would translate into protection from disease in animals in the PG-PS model of arthritis. The progression of disease in this model follows a biphasic mode, with an early acute, predominantly neutrophil-driven phase which persists to days 6-7, followed by a chronic, T cell dependent phase (evident around day 12), which is characterized by chronic inflammation and erosive synovitis (Palombella (1998) Proc. Natl. Acad. Sci. USA 95:15671-15676). Therapeutic dosing of animals administered the MetAP-2 inhibitor orally (p.o.) at 1, 5 and 10 mg/kg, every other day (qod), or vehicle started at day 15 after the chronic destructive phase of the disease was established and terminated on day 31. […] The amount of uninhibited MetAP-2 in wbc of animals from all treatment groups was measured after conclusion of the study, using the MetAP-2 pharmacodynamic assay (Bernier (2004) Proc. Natl. Acad. Sci. USA 101: 10768-10773 and Bernier (2005) J. Cell. Biochem. 95: 1191-1203). […]

[2] = tested on: PG-PS-induced arthritis; assay: Microfocal computed tomography of hind joints in rat PG-PS arthritis model; type: in vivo; conditions: PG-PS arthritis, 1 mg/kg; threshold 255
Procedure: Microfocal computed tomography. All specimens were scanned on a Scanco Medical AG μCT 40 system. Images were obtained with an isotropic voxel resolution of 20 microns. A matrix size of 1024×1024 with 1000 projections was utilized for all scans. A total of 1836 slices were scanned for each specimen (the number of slices scanned was determined by the length of the scan needed to cover the entire ankle including the distal tibia). The scan time per specimen was approximately 2.6 hours. The images were then volume rendered using a fixed threshold (at two different thresholds: 255 and 140). The total bone volume and BMD were calculated over the same regions of all the specimens. Micro-CT was performed at Scanco USA, Incorporated.
Finally, the activity of the MetAP-2 inhibitor on the structural preservation of hind joints in rats with established disease was investigated.
The ankles including the distal tibia were scanned using a Scanco Medical AG μCT 40 system (threshold: 255), and the total bone volume and BMD were calculated over the same regions of all specimens.

[3] = tested on: PG-PS-induced arthritis; assay: Clinical (histopathological) assessment of PG-PS arthritis, joint histology score; type: in vivo, rat; conditions: PG-PS arthritis, 1 mg/kg
Procedure: Clinical assessment of PG-PS arthritis. The histopathological evaluation was performed on the left and right hind joints of randomly selected animals from each study group by an independent histopathologist without knowledge of specific interventions. After completion of the study, the left and right hind ankles were removed, fixed in 10% buffered formalin, decalcified in 5% formic acid, paraffin-embedded, sectioned, and H&E stained for histological evaluation. A joint histology scoring system which grades the severity of 4 histopathological processes (cell infiltration, pannus formation, cartilage erosion, bone resorption), was used to quantify hind joint involvement in the PG-PS arthritis model (36). Dependent on the assigned score for each parameter (0=normal, 1=minimal, 2=mild, 3=moderate, 4=marked), the maximum total score per ankle is 16, and 32 per animal.
It was investigated whether the protective activity of the MetAP-2 inhibitor in this animal model of arthritis, which is characterized by aggressive synovitis, extensive pannus formation, cartilage degradation and focal bone erosion, was mediated through regression in the severity of all clinical indices tested, or whether this activity was targeting specific pathogenic processes.
A joint histology scoring system which grades the severity of 4 histopathological processes (cell infiltration, pannus formation, cartilage erosion, bone resorption) was used (O'Byrne (1991) Agents and Actions 134:239-241).

T1 sequence (P38062 whole entry): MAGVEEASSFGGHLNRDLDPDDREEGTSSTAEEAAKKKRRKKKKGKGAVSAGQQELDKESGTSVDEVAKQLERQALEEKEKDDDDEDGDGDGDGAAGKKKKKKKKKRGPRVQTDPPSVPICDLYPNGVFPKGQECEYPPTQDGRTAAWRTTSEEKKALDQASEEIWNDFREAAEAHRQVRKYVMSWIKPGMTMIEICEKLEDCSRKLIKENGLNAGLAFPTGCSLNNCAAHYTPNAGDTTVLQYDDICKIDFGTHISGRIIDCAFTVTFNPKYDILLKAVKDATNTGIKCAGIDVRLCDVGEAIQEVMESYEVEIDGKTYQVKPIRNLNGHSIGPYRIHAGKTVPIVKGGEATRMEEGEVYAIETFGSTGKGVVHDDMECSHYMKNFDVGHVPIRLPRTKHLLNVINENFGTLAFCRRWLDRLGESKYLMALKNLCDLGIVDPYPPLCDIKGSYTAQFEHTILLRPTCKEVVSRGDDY

In the case of `C[C@@H]1C[C@H]2[C@@H]3CCC4=CC(=O)C=C[C@]4(C)[C@@]3(F)[C@@H](O)C[C@]2(C)[C@@]1(O)C(=O)CO` [dex, dexamethasone, reference compound], the inhibition at 1 mg/kg [1] is reported as no less than 90%, the BMD [2] is reported as 1125 ± 2.59 mg HA/ccm and the “Bone Volume (Vox-BV)” value [2] is reported as 240.7 ± 12.68. For the same compound, the Total arthritis score [3] was 2.35 ± 0.23^B, the “Bone Resorption score” value ([3]; score 0-4) was 0.95 ± 0.13^B and the Cartilage erosion score ([3]; score 0-4) was 0.60 ± 0.14^B. For the same compound, the Cell infiltration score ([3]; score 0-4) was 0.25 ± 0.08^A and the Pannus formation score ([3]; score 0-4) was 0.55 ± 0.08^A.
